Common to all, as to type: cell-based, human
The test system of series [1] is HepG2 cells. Briefly: Cell proliferation assay, two-dimensional culture (plastic dish), Cyquant. On the procedure: Cells were seeded on a plate at 1.0×10^4 cells/mL, and, after 12 hours, the medium was replaced with a medium containing 10% serum. While the cell number was counted every 48 hours, the cells were cultured up to 10 days. The measurement of the cell number was performed using Cyquant NF assays (Life Technologies/Thermo Fisher Scientific) according to protocols recommended by the manufacturer.
Mock HepG2 cells (having a vector only, containing no GREB1) or GREB1-transduced HepG2 cells were transfected with control siRNA or two different types of siRNA (GREB1 #1 siRNA and GREB1 #2 siRNA), then two-dimensional culture (plastic dish culture) was performed, and a relative cell number was calculated by Cyquant assay overtime. As a result, in GREB1 knockdown, proliferative capacity of HepG2 cells in two-dimensional culture was reduced. However, when GREB1-transduced HepG2 cells were transfected with siRNAs against GREB1 (GREB1 #1 siRNA/GREB1 and GREB1 #2 siRNA/GREB1), the proliferative capacity of HepG2 cells was not affected (see a of FIG. 4).

The test system of series [2] is HepG2 cells. Description: Three-dimensional Matrigel culture, area of spheres. The settings on record: 3D Matrigel for 5 days. On the procedure: Cells grown on a glass cover slip were fixed with PBS containing 4% (w/v) paraformaldehyde at room temperature for 10 minutes, and permeabilization treatment was performed in PBS containing 0.2% (w/v) Triton X-100 and 2 mg/ml BSA for 10 minutes. Further, cells grown by three-dimensional culture were fixed in PBS containing 4% (w/v) paraformaldehyde at room temperature for 30 minutes, and blocked in PBS containing 0.5% (w/v) Triton X-100 and 40 mg/ml BSA for 30 minutes. […]
Further, HepG2 cells transfected with control siRNA or siRNA (GREB1 #2 siRNA) were cultured in 3D Matrigel for 5 days, and the cultured cells were stained with phalloidin to measure the areas of spheres (n=20). […] The ratio of spheres having polarized lumens was calculated as a ratio of spheres having F-actin-positive central microlumen to the total spheres.
Further, HepG2 cells expressing GFP or GFP-GREB1 were transfected with control ASO or each of the above-described GREB1 ASOs, and cultured in three-dimensional Matrigel for 4 days. The cultured cells were stained with phalloidin and Hoechst33342, and the areas of spheres were calculated (n=50).

The subject of series [3] is PAI-1 gene locus (exon 2). Description: Chromatin immunoprecipitation with anti-acetylated histone 4 antibody, PAI-1 exon 2. The settings on record: HepG2 cells; presence or absence of 10 ng/mL TGFβ for 30 minutes. On the procedure:
Confluent HepG2 cells in a 10 cm dish were stimulated in the presence or absence of 5 ng/ml of TGFβ1 for 3 hours. Thereafter, the cells were allowed to crosslink using 1% formaldehyde at room temperature for 10 minutes, and the crosslinking reaction was terminated with 0.125 M glycine. The cells were washed three times with cold PBS, and thereafter the cells were removed and collected. Further, the cells were sedimented by centrifugation, and lysed with a sodium dodecyl sulfate (SDS) lysis buffer (50 mM Tris/HCl [pH 8.0], 10 mM EDTA, and 0.5% SDS). The cell lysates were subjected to ultrasonication to shear DNA into DNA fragments having sizes of 200 to 1000 bp. Supernatant of the sheared chromatin was diluted with ChIP dilution buffer (16.7 mM Tris/HCl [pH 8.0], 167 mM NaCl, 1.2 mM EDTA, and 1.1% Triton X-100) containing a protease inhibitor and a phosphatase inhibitor, and precleared by adding salmon sperm DNA/protein A-agarose beads (Millipore, Billerica, Mass., USA). […]
Further, HepG2 cells transfected with control siRNA or GREB1 #2 siRNA were cultured in the presence or absence of 10 ng/mL of TGFβ for 30 minutes. […] Next, the exon 2 domain of PAI contained in the cell lysates (Input) and immunoprecipitates (IP) was analyzed by PCR using domain-specific primers.

Series [4] relates to HepG2 cells. Description: mRNA (real-time PCR) and protein (lysate probing) expression in HepG2 cells. On the procedure: Using RNAiMAX (Life Technologies/Thermo Fisher Scientific), HepG2 cells, Huh6 cells, Hep3B cells, JHH7 cells, and SKMEL28 cells were each transfected with each siRNA (10 nm). In experiments, the cells were used from 48 to 120 hours after transfection.
In general terms: Real-time PCR tracks product formation cycle by cycle.

“GREB1 #2 siRNA: siRNA against human GREB1; sense 5′-CCUCCUACAAAGCAAUAUUTT-3′ (SEQ ID NO: 6), antisense SEQ ID NO: 7 (antisense AAUAUUGCUUUGUAGGAGGTT; chemistry not given here)”: the “proliferative capacity of HepG2 cells in two-dimensional culture” value is recorded as “not affected” in the series on HepG2 cells [1] (GREB1-transduced HepG2 cells) and “reduced” in the series with HepG2 cells [1] (mock HepG2 cells, relative cell number by Cyquant over time). The “ratio of spheres having polarized lumens” value in the series with HepG2 cells [2] is recorded as “increased”. Further, in the series with HepG2 cells [2] (phalloidin, n=20), the area of sphere result was “reduced the area of sphere to half”. In addition, the “amount of acetylated histone 4 in the PAI-1 gene locus (exon 2)” value in series [3] is given as “increased”. Further, the “expression levels of PAI-1 and SNAIL2” value in the series on HepG2 cells [4] (HepG2/GFP cells, real-time PCR, n=3) is “increased”. The “PAI-1 and SNAIL2 phenotypes of GREB1 knockdown” value with HepG2 cells [4] (HepG2/GFP-GREB1 cells (expression of GFP-GREB1)) is given as “restored”. Besides, the “amounts of cleaved caspase 3 and PARP1” value with HepG2 cells [4] (HepG2 cells, 0.1% FBS for 2 days, lysate probing) is given as “increased”. Also, the “expressions of β-catenin and Axin2” value in the series with HepG2 cells [4] (HepG2 cells, GREB1 knockdown, lysate probing) was “no effect”. Further, in the series with HepG2 cells [4] (HepG2 cells, GREB1 knockdown, real-time PCR), the “expressions of PRLR and XBP1 (ER signal target genes)” value is recorded as “no effect”. For the same substance, the “expression of cell cycle regulators cyclinA, cyclinB, phosphorylated histone H3” value with HepG2 cells [4] (HepG2 cells, medium containing 1% FBS for 1 day, lysate probing) is “decreases”. The “increases in mRNA levels of PAI-1 and SNAIL2 by knockdown of GREB1” value with HepG2 cells [4] (HepG2 cells, presence or absence of TGFβ receptor inhibitor (ALK5 inhibitor)) was “TGFβ receptor signal dependent”. The “expressions of DLK1, AFP, and PEG3” value with HepG2 cells [4] (HepG2 cells, real-time PCR) was “significantly decreased”. Also, the “decrease in expression of AFP by knockdown of GREB1” value with HepG2 cells [4] (Smad2/3 knockout HepG2 cells vs HepG2 cells, real-time PCR) is reported as “restored”. Further, the “decrease in expression of DLK1 by knockdown of GREB1” value in the series on HepG2 cells [4] (effect of Smad2/3 knockout in HepG2 cells) was “no effect”.

The values are drawn from US20220249538A1, “TREATMENT AGENT FOR SEX HORMONE-INSENSITIVE GREB1-POSITIVE TUMORS” (OSAKA UNIVERSITY, priority 2019, published 2022).
